Earlier results in patent publication US6669955B2, “Combination dosage form containing individual dosage units of a cholesterol-lowering agent, an inhibitor of the renin-angiotensin system, and aspirin” (Longwood Pharmaceutical Research, Inc., priority 2001, dated 2003).

Columns and labels:
[1] = tested on: patients at risk for cardiovascular events; conditions: daily administration of low doses (approximately 80 mg); cited from earlier work
blood pressure = conditions: relative to angiotensin II; cited from earlier work

Molecule	reduction of second heart attacks, strokes, and cardiovascular deaths [1]	hypertensive activity, as share of that of angiotensin II (blood pressure)
CC(=O)Oc1ccccc1C(=O)O [aspirin, acetylsalicylic acid]	at least 25%	–
angiotensin I (DRVYIHPFHL; Angiotensin-1; UniProt P01019 25-34, looked up) [decapeptide formed by renin acting on angiotensinogen]	–	about 1%
